Measurements as given in ChEMBL document CHEMBL1135794, “Looking for selectivity among cytochrome P450s inhibitors” (J Med Chem, 2002).

Tests used:
[1] = target: T1, Steroid 17-alpha-hydroxylase/17,20 lyase (Homo sapiens, UniProt P05093); experiment: Inhibition of Cytochrome P450 17; Inactive
T1 sequence (P05093 whole entry): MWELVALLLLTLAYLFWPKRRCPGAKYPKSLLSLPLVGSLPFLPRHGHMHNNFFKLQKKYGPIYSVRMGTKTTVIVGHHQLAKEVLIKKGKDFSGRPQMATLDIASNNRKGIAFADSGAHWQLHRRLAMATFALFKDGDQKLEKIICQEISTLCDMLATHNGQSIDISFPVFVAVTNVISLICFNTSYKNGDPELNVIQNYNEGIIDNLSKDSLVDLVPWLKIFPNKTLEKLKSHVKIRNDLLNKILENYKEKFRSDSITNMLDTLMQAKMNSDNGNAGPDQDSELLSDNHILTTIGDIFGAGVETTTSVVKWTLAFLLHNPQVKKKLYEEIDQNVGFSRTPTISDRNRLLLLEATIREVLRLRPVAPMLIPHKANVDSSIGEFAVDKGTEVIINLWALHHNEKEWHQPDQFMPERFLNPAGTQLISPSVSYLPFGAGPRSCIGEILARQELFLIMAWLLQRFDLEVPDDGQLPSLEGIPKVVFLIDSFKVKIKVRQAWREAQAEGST

[2] = target: T1, Steroid 17-alpha-hydroxylase/17,20 lyase; experiment: Inhibition of Cytochrome P450 17

## N#Cc1ccc(Cn2ccnc2)c2oc3ccccc3c(=O)c12
[1]
  IA: Not Active

## O=c1c2ccccc2oc2c(Br)ccc(Cn3ccnc3)c12
[2]
  Inhibition: 42 nM
